Measured values taken from patent US20200289482A1, “CYSTIC FIBROSIS TRANSMEMBRANE CONDUCTANCE REGULATOR MODULATORS FOR TREATING AUTOSOMAL DOMINANT POLYCYSTIC KIDNEY DISEASE” (The Johns Hopkins University, priority 2017, published 2020).

Experiments:
Type in all cases: cell-based, mouse
cAMP in PN cells = experiment: Cyclic AMP enzyme immunoassay in cells; conditions: for increase of cAMP activity in PN cells: treating PN cells with forskolin or IBMX
Experimental: FIG. 4A, FIG. 4B, FIG. 4C, FIG. 4D, and FIG. 4E show (FIG. 4A-FIG. 4B) cAMP levels are reduced by VX-809. (FIG. 4A) cAMP levels in mouse tissue were reduced by VX-809. The kidney samples (n=6) analyzed were taken from those depicted in FIG. 1. (FIG. 4B) Confluent PN and PH cells were treated with VX-809 (10 μM) or DMSO for 16 h and then treated with forskolin (100 μM) for 30 min before the cells were harvested for the assay. Columns represent means±SEM. Statistical analysis was performed using a two-tailed Student's t-test. Each set of data is from three individual wells; Note that resting cAMP is greater in PN vs PH cells as previously shown (25). Also note that forskolin caused a large increase in cAMP. A smaller increase occurred with IBMX. However, the increase induced by forskolin alone was similar to that by IBMX plus forskolin. […] (FIG. 4C, FIG. 4D, and FIG. 4E) Adenylyl cyclase expression. (FIG. 4C) Western blot showing the expression of adenylyl cyclase (AC) 6 and AC3 in treated and control PN cells. (FIG. 4D-FIG. 4E) Columns represent means±SEM of the AC3 and AC6 expression. The data were analyzed by non-parametric t-test. The experiment was repeated four times. For all graphs, *P<0.05, **P<0.01, and ***P<0.001;
It has been shown previously in both animal and cell culture models of ADPKD that cells lacking functional PC1 have elevated cAMP levels when compared to normal (24). To assess the effect of CFTR correctors, cAMP activity was measured in PC1 conditional knockout mouse kidneys and in PN cells that were either left untreated or treated with VX-809. […] Cells were treated with forskolin, which increased cAMP levels drastically (FIG. 4B). […] Treating PN cells with forskolin or IBMX (FIG. 4B) increased the cAMP activity by ˜10-fold.
Confluent cells were treated with VX-809 (10 μM) or DMSO for 16 h before being harvested for assay. Cyclic AMP levels were measured with a direct cAMP Enzyme Immunoassay Kit (Sigma, # CA200) according to the manufacturer's protocol. The results are expressed as pmole/ml. Statistical analysis was performed using a two-tailed Student's t-test.

Hsp90 = experiment: Cycloheximide chase, disappearance of Hsp90 in PN cells; conditions: cycloheximide 25 μM, 8 h
Experimental: (§1) FIG. 9A, FIG. 9B, FIG. 9C, FIG. 9D, FIG. 9E, FIG. 9F, FIG. 9G, and FIG. 9H show Hsp27, HSp70, and Hsp90 expression in PN cells treated with VX-809 and/or cycloheximide. (A) Pkd1 null (PN) cells were treated with VX-809 (10 μM) and/or with cycloheximide (25 μM) for indicated time points before being harvested for the assay. (FIG. 9A) Western blot showing expression of Hsp27, Hsp70, and Hsp90 in VX-809-(16 h), cycloheximide-treated, or control PN cells. ((FIG. 9B. (FIG. 9C, and (FIG. 9D) Columns represent averages±standard errors of Hsp27, Hsp70, and Hsp90 expression in cells treated with VX-809 and/or cycloheximide. ((FIG. 9E) Western blot showing expression of Hsp27, Hsp70, and Hsp90 in PN cells treated with VX-809+cycloheximide or control PN cells. ((FIG. 9F, (FIG. 9G, and (FIG. 9H) Columns represent averages±standard errors of Hsp27, Hsp70, and Hsp90 expression in cells treated only with cycloheximide or in control PN cells. Data were analyzed by non-parametric t-test. The experiments were repeated 3-5 times. *P<0.05, **P<0.01;
(§2) To gain more insight into the mechanism whereby VX-809 alters Hsp protein levels, translation was inhibited by using cycloheximide (35) and the disappearance of the three Hsps was monitored. […] Hsp 90 was reduced by approximately 25%, and Hsp27 was unchanged.

Hsp70 = experiment: Cycloheximide chase, disappearance of Hsp70 in PN cells; conditions: cycloheximide 25 μM, 8 h
Experimental: as §1, §2

Hsp27 = experiment: Cycloheximide chase, disappearance of Hsp27 in PN cells; conditions: cycloheximide 25 μM, 8 h
Experimental: as §1, §2

With `CC(C)Cn1c(=O)n(C)c(=O)c2[nH]cnc21` [IBMX, 3-isobutyl-1-methylxanthine] the “increase of cAMP activity in PN cells” value (cAMP in PN cells) was roughly 10 fold.

For `C[C@@H]1C[C@@H]([C@H](O)CC2CC(=O)NC(=O)C2)C(=O)[C@@H](C)C1` [cycloheximide], the “steady-state level of Hsp90 after cycloheximide alone” value (Hsp90) was “unchanged over the 8 h”, the “steady-state level of Hsp70 after cycloheximide alone” value (Hsp70) was “unchanged over the 8 h” and the “steady-state level of Hsp27 after cycloheximide alone” value (Hsp27) was “unchanged over the 8 h”.

For `C=C[C@@]1(C)CC(=O)[C@]2(O)[C@@]3(C)[C@@H](O)CCC(C)(C)[C@@H]3[C@H](O)[C@H](OC(C)=O)[C@@]2(C)O1` [forskolin], the “forskolin elevates cAMP activity” value (cAMP in PN cells; as restated at the end of Example 4) was roughly 500 fold and the “increase of cAMP activity in PN cells” value (cAMP in PN cells) was roughly 10 fold.
